Laboratory results as given in PubChem BioAssay (NCI).
Values joined by “and” are separate entries in the source; they are usually repeats but may differ in a detail not shown here. Identical values can stand only once.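 Interpolation was linear, between the two tested concentrations surrounding the appropriate level; five concentrations were tested over 48 hours in 96-well plates. The concentration for 50% growth inhibition is given as GI50. TGI marks complete inhibition of growth.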 *1 amine or outer side, *2 acyl side, *3 side chain or, on linkers, in order; H or OH if unused. Where a SMILES comes first, the peptide text is derived from it. Bridges are numbered along the chain shown (N, C = ends). [ ]: non-standard residue; d: D form. The star is where a group is joined. Phe(3,5-F2) = N[C@@H](Cc1cc(F)cc(F)c1)C(=O)O; Pro(4R-Me) = C[C@H]1CN[C@H](C(=O)O)C1; aThr = C[C@H](O)[C@H](N)C(=O)O; Pip = O=C(O)[C@@H]1CCCCN1; X10 = Fc1cc(C2CC2)ccc1N*; Abu = CC[C@H](N)C(=O)O; CO = O=C([*:1])[*:2]

Test system: MDA-MB-468 breast
Test: NCI tumour cell line growth inhibition, 48 h

SMILES	GI50	TGI
Cn1cc(C2=C(c3c4n(c5ccccc35)CCN(C(N)=S)C4)C(=O)NC2=O)c2ccccc21	3.35 µM	> 21 µM
CCn1cc(C(=O)N/N=C/c2ccc(Br)cc2)c(=O)c2cc(F)c(N3CCNC(C)C3)c(F)c21 (stereo not drawn)	1.59 µM	3.09 µM
O=C1Nc2ccccc2C1(c1c[nH]c2ccccc12)c1c[nH]c2ccccc12	2.08 µM	4.56 µM
O=C(CNc1c(Cl)cccc1Cl)Nc1ccc(-c2nc3ccccc3s2)cc1	0.0381 µM	0.219 µM
Oc1ccc(CCl)c2cccnc12	3.39 µM	54.3 µM
COc1cc(-c2nn(-c3ccc(NC(=O)NCCCNC(=O)c4ccccc4)cc3)cc2-c2ccncc2)ccc1Cl	0.284 µM	0.827 µM
FC(F)(F)c1ccc(CNc2ccc(Cc3c[nH]c4ncc(Cl)cc34)cn2)cn1	5.1 µM and 3.77 µM	34.4 µM and > 10 µM
FC(F)(F)CNc1nccc(-c2cnn3ncccc23)n1	8.49 µM	> 25 µM
ClC1=C(Cl)C(Cl)=C(Cl)C1=Cc1ccccc1	1.31 µM	2.69 µM
O=[N+]([O-])c1ccc2scc3c4ccccc4nc-3c2c1	0.919 µM	2.25 µM
COc1cc(C(C)c2ccc3c(ccn3C)c2)cc(OC)c1OC (stereo not drawn)	< 0.01 µM	62.1 µM
c1ccc(CSc2nnc3c4c5c(sc4nc(-c4cccnc4)n23)CCCCCC5)cc1	0.568 µM	4.12 µM
Cc1ccc(C)c(COc2cc(NC(=O)c3ccc4c(c3)OCO4)ccc2N(C)S(C)(=O)=O)c1	0.114 µM	0.44 µM
Cc1nc2ccccc2c(/C=C/c2ccc(Cl)cc2)c1C(=O)/C=C/c1ccc(F)cc1	1.8 µM	3.73 µM
CC[C@@H]1NC(=O)[C@@H]2CCCCN2C(=O)[C@@H]2CCCN2C(=O)[C@@H](NC(=O)[C@H](Cc2cc(F)cc(F)c2)NC(=O)Nc2ccc(C3CC3)cc2F)[C@H](C)OC(=O)[C@@H]2C[C@@H](C)CN2C1=O ({X10-CO}-[Phe(3,5-F2)][aThr]P[Pip][Abu][Pro(4R-Me)]; ester 2-C)	0.0267 µM	0.149 µM
Nc1c(C(=O)Nc2ccccn2)sc2nc3c(cc12)CCCCC3	1.05 µM	> 50 µM
COc1cc(OC)cc(C2C(C#N)=C(N)Oc3c2ccc2ccc(O)cc32)c1 (stereo not drawn)	< 0.01 µM	0.98 µM
O=C(NC1CCC(Br)CC1)C1CCCC(S(=O)(=O)NC2CCCCC2)C1 (stereo not drawn)	6.44 µM	24.9 µM

SMILES	GI50	TGI
O=C(O)c1sccc1O	32.9 µM	> 100 µM
CC/C=C\C/C=C\C[C@H]1C/C=C2/C(=O)C=C[C@@H]2C/C=C\CCC(=O)O1	0.838 µM	2.53 µM
O=c1[nH]c2ccc(N=Cc3c(O)[nH]c4ccccc34)cc2[nH]1	> 25 µM	> 25 µM
O=C(Nc1ccc(Oc2cccc(Cl)c2)c(Cl)c1)c1cnccn1	0.255 µM	> 15.8 µM
CC(C)=NNc1ncnc2c1ncn2C1OC(CO)C(O)C1O (stereo not drawn)	0.499 µM	3.9 µM
COc1ccc(F)cc1/C=C/C(=O)/C=C(/C=C/c1cc(F)ccc1OC)OB(F)F	1.62 µM	4.37 µM
COc1cnc2c(c1)C(=O)c1c-2n(CCCBr)c(=O)c2cc([N+](=O)[O-])ccc12	0.291 µM	0.955 µM
CCN(CC)c1ccc2c(cc1=O)[C@@H](NC(C)=O)CCc1cc(OC)c(OC)c(OC)c1-2	0.13 µM	
N=C1S/C(=C/c2ccc(-c3ccc4c(c3)C(=O)NC4=O)o2)C(=O)N1c1ccc(Br)cc1	4.57 µM	> 100 µM
COc1cccc2cc(N(C)c3ncnc4ccccc34)ccc12	< 0.01 µM	4.74 µM
CCC[C@H](N[C@H]1CCc2cc(F)cc(F)c2C1)C(=O)Nc1cn(C(C)(C)CNCC(C)(C)C)cn1		74.6 µM and 21.1 µM
COc1ccc(C(O)c2cc3c(N)c(C(=O)Nc4cccc(OC)c4)sc3nc2C)cc1 (stereo not drawn)	1.23 µM	4.61 µM
CCCCCc1c(C)[nH]c(/C=C2\N=C(c3ccc[nH]3)C=C2Oc2ccccc2)c1C	0.0104 µM	0.301 µM
Cc1cc(Nc2ncc(F)c(N[C@H]3[C@@H](C(N)=O)[C@@H]4C=C[C@H]3C4)n2)ccc1N1CCN(C)CC1	< 0.0161 µM	1.26 µM
C[C@]12CC[C@H](OC3OC(O)C(O)C(O)C3O)C=C1CCC1C2CC[C@]2(C)[C@@H](c3ccc(=O)oc3)CC[C@]12O (stereo partly drawn)	0.00379 µM and 0.00512 µM	0.0202 µM and 0.0145 µM
COCCNCCc1cccc(Nc2ncc3c(n2)-c2ccccc2C(c2ccccc2F)C3)c1 (stereo not drawn)	1.9 µM and 2 µM	3.7 µM and 3.86 µM
CC(=O)Nc1ccc2c(C3=C(c4cn(C)c5ccccc45)C(=O)NC3=O)cn(C)c2c1	0.988 µM	> 7.22 µM
